Where two headings read alike, the source gives them in different places.
How the values were obtained:
AsbA [1] = target: T1, AsbA (Bacillus anthracis, UniProt A0A0F7RJ52); format: biochemical, B. anthracis; settings: read-out: IC50 against AsbA
SbnE [2] = target: T2, SbnE (Staphylococcus aureus, UniProt Q2G1M9); format: biochemical, S. aureus; settings: read-out: IC50 against SbnE
T2 sequence (Q2G1M9 1-578): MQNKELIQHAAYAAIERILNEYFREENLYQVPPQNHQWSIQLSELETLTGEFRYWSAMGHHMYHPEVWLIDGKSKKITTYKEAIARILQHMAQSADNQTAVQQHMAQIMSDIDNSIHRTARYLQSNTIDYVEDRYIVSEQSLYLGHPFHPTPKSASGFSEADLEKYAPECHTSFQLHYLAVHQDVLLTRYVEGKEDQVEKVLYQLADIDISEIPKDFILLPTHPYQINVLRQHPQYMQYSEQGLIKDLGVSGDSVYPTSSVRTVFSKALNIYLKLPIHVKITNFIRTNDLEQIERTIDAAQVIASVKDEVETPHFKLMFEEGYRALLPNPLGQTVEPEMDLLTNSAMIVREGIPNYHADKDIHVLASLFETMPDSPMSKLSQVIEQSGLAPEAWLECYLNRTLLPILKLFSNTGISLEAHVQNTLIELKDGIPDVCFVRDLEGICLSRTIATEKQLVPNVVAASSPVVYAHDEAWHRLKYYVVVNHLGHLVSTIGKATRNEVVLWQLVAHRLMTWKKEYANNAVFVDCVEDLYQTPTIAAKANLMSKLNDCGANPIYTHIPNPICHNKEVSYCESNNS

S. aureus (Newman) = format: cell-based
AsbB = AsbB (Bacillus anthracis, UniProt Q81RQ8); format: biochemical, B. anthracis; settings: for IC50: read-out: IC50 against AsbB
S. typhimurium = format: cell-based, Salmonella typhimurium
SbnE [3] = target: T2, SbnE; format: biochemical, S. aureus
S. flexneri (BS103) = format: cell-based, Shigella flexneri
[4] = tested on: B. anthracis (Sterne 34F2); format: cell-based
E. coli (MC 1061) = format: cell-based
AsbA [5] = target: T1, AsbA; format: biochemical, B. anthracis
MRSA (USA 300) = format: cell-based, S. aureus

T1 sequence (A0A0F7RJ52 whole entry, looked up): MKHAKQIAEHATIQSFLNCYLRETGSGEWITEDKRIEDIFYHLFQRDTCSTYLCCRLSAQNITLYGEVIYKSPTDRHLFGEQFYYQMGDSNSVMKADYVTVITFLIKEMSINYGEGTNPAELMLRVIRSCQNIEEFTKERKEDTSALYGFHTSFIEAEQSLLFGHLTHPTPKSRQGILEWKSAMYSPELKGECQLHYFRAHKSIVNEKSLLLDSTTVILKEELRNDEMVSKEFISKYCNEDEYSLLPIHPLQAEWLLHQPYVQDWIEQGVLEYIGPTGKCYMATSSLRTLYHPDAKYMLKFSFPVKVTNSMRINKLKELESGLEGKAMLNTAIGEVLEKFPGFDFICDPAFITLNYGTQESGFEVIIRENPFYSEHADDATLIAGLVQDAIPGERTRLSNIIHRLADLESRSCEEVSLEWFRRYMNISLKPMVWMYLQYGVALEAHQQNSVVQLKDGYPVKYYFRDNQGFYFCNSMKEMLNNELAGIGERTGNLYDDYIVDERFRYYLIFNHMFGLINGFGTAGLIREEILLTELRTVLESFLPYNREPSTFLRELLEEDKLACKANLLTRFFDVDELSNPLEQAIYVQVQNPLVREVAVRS
Chain of AsbB (Q81RQ8 whole entry, looked up): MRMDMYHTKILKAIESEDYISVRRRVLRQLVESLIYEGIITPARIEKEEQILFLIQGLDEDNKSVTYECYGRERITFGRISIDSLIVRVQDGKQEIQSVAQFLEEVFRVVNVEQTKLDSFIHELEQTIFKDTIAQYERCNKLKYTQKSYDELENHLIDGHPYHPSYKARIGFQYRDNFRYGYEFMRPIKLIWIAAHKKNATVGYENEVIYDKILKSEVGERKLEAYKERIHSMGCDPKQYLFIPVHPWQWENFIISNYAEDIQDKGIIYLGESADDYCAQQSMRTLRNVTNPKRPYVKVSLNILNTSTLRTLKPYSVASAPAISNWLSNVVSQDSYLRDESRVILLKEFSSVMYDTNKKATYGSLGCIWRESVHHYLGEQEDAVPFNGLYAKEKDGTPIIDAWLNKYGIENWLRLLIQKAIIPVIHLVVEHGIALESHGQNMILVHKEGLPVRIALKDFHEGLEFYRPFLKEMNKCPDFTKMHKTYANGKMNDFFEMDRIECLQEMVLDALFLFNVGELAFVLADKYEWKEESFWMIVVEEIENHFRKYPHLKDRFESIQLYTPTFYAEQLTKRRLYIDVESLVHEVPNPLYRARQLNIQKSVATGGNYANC

CC(=O)[C@H](C)C[C@@H](C)C[C@H](C)CC[C@@H](O)C[C@@H](O)[C@@H](CC(C)C)[C@@H](O)c1cc(O)cc(O)c1 [BmcB, baulamycin B]
IC50 (AsbA [1]): 200 µM
IC50 (SbnE [2]): 19 µM
potency against S. aureus (Newman) cultures compared with BmcA (in words) (S. aureus (Newman)): significantly less potent
inhibition against AsbB (in words) (AsbB): negligible
IC50 (AsbB): > 1000 µM

CCC(=O)[C@H](C)C[C@@H](C)C[C@H](C)CC[C@@H](O)C[C@@H](O)[C@@H](CC(C)C)[C@@H](O)c1cc(O)cc(O)c1 [BmcA, baulamycin A]
IC50 (S. typhimurium; read-out: IC50, S. typhimurium, iron-depleted conditions): > 1000 µM
IC50 (S. typhimurium; read-out: IC50, S. typhimurium, iron-rich conditions): > 1000 µM
IC50 (S. typhimurium; read-out: IDM IC50, S. typhimurium): > 1000 µM
IC50 (S. typhimurium; read-out: IRM IC50, S. typhimurium): > 1000 µM
IC50 (AsbA [1]): 180 µM
mode of inhibition of SbnE (SbnE [3]): reversible, competitive
Ki (SbnE [3]; read-out: Ki, SbnE, with respect to ATP): 680 µM
Ki (SbnE [3]; read-out: Ki, SbnE, with respect to citric acid): 50 µM
Ki (SbnE [3]; read-out: Ki, SbnE, with respect to polyamine substrate): 210 µM
IC50 (S. flexneri (BS103); read-out: IDM IC50, S. flexneri (BS103)): 20 µM
IC50 (S. flexneri (BS103); read-out: IRM IC50, S. flexneri (BS103)): 46 µM
IC50 ([4]; read-out: IDM IC50, B. anthracis (Sterne 34F2)): 110 µM
IC50 ([4]; read-out: IRM IC50, B. anthracis (Sterne 34F2)): 120 µM
IC50 (E. coli (MC 1061); read-out: IDM IC50, E. coli (MC 1061)): 4.2 µM
IC50 (E. coli (MC 1061); read-out: IRM IC50, E. coli (MC 1061)): 150 µM
mode of inhibition of AsbA (AsbA [5]): reversible, competitive
Ki (AsbA [5]; read-out: Ki, AsbA, with respect to ATP): 230 µM
Ki (AsbA [5]; read-out: Ki, AsbA, with respect to citric acid): 110 µM
Ki (AsbA [5]; read-out: Ki, AsbA, with respect to polyamine substrate): 170 µM
IC50 (SbnE [2]): 4.8 µM
IC50 (S. aureus (Newman); read-out: IDM IC50, S. aureus (Newman)): 69 µM
IC50 (S. aureus (Newman); read-out: IRM IC50, S. aureus (Newman)): 86 µM
inhibition against AsbB (in words) (AsbB): negligible
IC50 (AsbB): > 1000 µM
IC50 (MRSA (USA 300); read-out: IDM IC50, MRSA (USA 300)): 130 µM
IC50 (MRSA (USA 300); read-out: IRM IC50, MRSA (USA 300)): 130 µM

From publication PMC4028973 (Journal of the American Chemical Society, 2014)
